Several values for one entry are separate records, joined by “and”; a condition that tells them apart may be missing. Equal entries are not always repeated. Inconclusive results and toxic doses are left out. Starred links: 1 amine or outer side, 2 acyl side, 3 side chain; linkers in the order of their positions; H or OH if unused. Positions of bridges follow the written chain, without caps; N, C: chain ends. Non-standard residues stand in square brackets, D forms with d. Residues, ends and D or L forms follow the SMILES beside them. Chains are numbered I, II in the order given. Actinocin(9to1) = Cc1c2oc3c(C)ccc(C(=O)[*:1])c3nc-2c(C(=O)[*:2])c(N)c1=O; NMeV = CN[CH](C(=O)O)C(C)C; Pip = O=C(O)[CH]1CCCCN1; Sar = CNCC(=O)O
Tested on: BDF1 mice, P388 leukemia ip, median survival T/C
Experiment: NCI In Vivo Anticancer Drug Screen. Data for tumor model P388 Leukemia (intraperitoneal) in B6D2F1 (BDF1) mice
Conditions: endpoint: median survival time, higher = longer survival
Method in brief: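 In tumour-bearing mice, survival after compound treatment is set against the vehicle group and given as a quotient.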

Cc1ccc(NC(=O)c2ccccc2Cl)cc1C
T/C (dose: 100.0 mg/kg/injection, schedule: Q04DX003 (ip), vehicle: saline with Tween-80): 104 % of control | T/C (dose: 200.0 mg/kg/injection, schedule: Q04DX003 (ip), vehicle: saline with Tween-80): 113 % of control | T/C (dose: 400.0 mg/kg/injection, schedule: Q04DX003 (ip), vehicle: saline with Tween-80): 109 % of control

CC(/C=C/C1(C)C(C)CCC(=O)C1C)=C\Cc1c(O)c(Cl)c(C)c(C=O)c1O (stereo not given)
T/C (dose: 12.5 mg/kg/injection, schedule: Q04DX003 (ip), vehicle: saline with Tween-80): 92 % of control | T/C (dose: 25.0 mg/kg/injection, schedule: Q04DX003 (ip), vehicle: saline with Tween-80): 90 % of control

COC(=O)c1c(I)cccc1[N+](=O)[O-]
T/C (dose: 100.0 mg/kg/injection, schedule: Q04DX003 (ip), vehicle: Klucel (hydroxypropylcellulose) (HPC)): 91 % of control | T/C (dose: 200.0 mg/kg/injection, schedule: Q04DX003 (ip), vehicle: Klucel (hydroxypropylcellulose) (HPC)): 95 % of control | T/C (dose: 400.0 mg/kg/injection, schedule: Q04DX003 (ip), vehicle: Klucel (hydroxypropylcellulose) (HPC)): 100 % of control

O=C1CC/C(=N\O)N1
T/C (dose: 75.0 mg/kg/injection, schedule: Q01DX009 (ip), vehicle: saline): 93 % of control | T/C (dose: 150.0 mg/kg/injection, schedule: Q01DX009 (ip), vehicle: saline): 86 % of control

NC(=O)N(CCCl)N=O
T/C (dose: 0.25 mg/kg/injection, schedule: Q01DX010 (ip), vehicle: saline): 190 % of control | T/C (dose: 0.5 mg/kg/injection, schedule: Q01DX010 (ip), vehicle: saline): 209 % of control and 213 % of control | T/C (dose: 1.0 mg/kg/injection, schedule: Q01DX010 (ip), vehicle: saline): 290 % of control and 300 % of control | T/C (dose: 1.25 mg/kg/injection, schedule: Q01DX010 (ip), vehicle: saline): 272 % of control and 168 % of control | T/C (dose: 2.0 mg/kg/injection, schedule: Q01DX010 (ip), vehicle: saline): 277 % of control | T/C (dose: 2.5 mg/kg/injection, schedule: Q01DX010 (ip), vehicle: saline): 118 % of control and 209 % of control | T/C (dose: 4.0 mg/kg/injection, schedule: Q01DX010 (ip), vehicle: saline): 90 % of control

N#CCc1cnc2nc(N)nc(N)c2n1
T/C (dose: 3.13 mg/kg/injection, schedule: Q01DX009 (ip), vehicle: other): 102 % of control | T/C (dose: 6.25 mg/kg/injection, schedule: Q01DX009 (ip), vehicle: other): 98 % of control | T/C (dose: 12.5 mg/kg/injection, schedule: Q01DX009 (ip), vehicle: other): 107 % of control | T/C (dose: 25.0 mg/kg/injection, schedule: Q01DX009 (ip), vehicle: other): 107 % of control

CC(=O)c1ccc[n+](C)c1
T/C (dose: 100.0 mg/kg/injection, schedule: Q01DX009 (ip), vehicle: saline): 100 % of control | T/C (dose: 200.0 mg/kg/injection, schedule: Q01DX009 (ip), vehicle: saline): 95 % of control

Cc1cccc(NC(=O)NCCOC(=O)OCCNC(=O)Nc2cccc(C)c2C)c1C
T/C (dose: 100.0 mg/kg/injection, schedule: Q01DX009 (ip), vehicle: saline with Tween-80): 90 % of control | T/C (dose: 200.0 mg/kg/injection, schedule: Q01DX009 (ip), vehicle: saline with Tween-80): 90 % of control | T/C (dose: 400.0 mg/kg/injection, schedule: Q01DX009 (ip), vehicle: saline with Tween-80): 113 % of control

NC(CCl)=NC1CCCCC1
T/C (dose: 12.5 mg/kg/injection, schedule: Q04DX003 (ip), vehicle: saline): 102 % of control | T/C (dose: 22.0 mg/kg/injection, schedule: Q04DX003 (ip), vehicle: saline): 121 % of control | T/C (dose: 25.0 mg/kg/injection, schedule: Q04DX003 (ip), vehicle: saline): 117 % of control | T/C (dose: 75.0 mg/kg/injection, schedule: Q04DX003 (ip), vehicle: saline): 96 % of control | T/C (dose: 100.0 mg/kg/injection, schedule: Q04DX003 (ip), vehicle: saline): 88 % of control

Cc1c2oc3c(C)ccc(C(=O)NC4C(=O)NC(C(C)C)C(=O)N5CCCCC5C(=O)N(C)CC(=O)N(C)C(C(C)C)C(=O)OC4C)c3nc-2c(C(=O)NC2C(=O)NC(C(C)C)C(=O)N3CCCCC3C(=O)N(C)CC(=O)N(C)C(C(C)C)C(=O)OC2C)c(N)c1=O (stereo not given) (I: TV[Pip][Sar][NMeV] / II: TV[Pip][Sar][NMeV]; ester I:1-I:C, II:1-II:C; linker I:N-II:N via Actinocin(9to1); configuration not given here)
T/C (dose: 0.25 mg/kg/injection, schedule: Q01DX009 (ip), vehicle: saline + alcohol): 114 % of control | T/C (dose: 0.75 mg/kg/injection, schedule: Q04DX003 (ip), vehicle: saline + alcohol): 116 % of control | T/C (dose: 2.0 mg/kg/injection, schedule: Q01DX009 (ip), vehicle: saline + alcohol): 162 % of control | T/C (dose: 4.0 mg/kg/injection, schedule: Q01DX009 (ip), vehicle: saline + alcohol): 180 % of control | T/C (dose: 6.0 mg/kg/injection, schedule: Q04DX003 (ip), vehicle: saline + alcohol): 160 % of control | T/C (dose: 12.0 mg/kg/injection, schedule: Q04DX003 (ip), vehicle: saline + alcohol): 155 % of control

CCOC(=O)/C(O)=C(\C=N\C(N)=O)C(=O)OCC
T/C (dose: 50.0 mg/kg/injection, schedule: Q04DX003 (ip), vehicle: saline sonified): 100 % of control | T/C (dose: 100.0 mg/kg/injection, schedule: Q04DX003 (ip), vehicle: saline sonified): 105 % of control | T/C (dose: 200.0 mg/kg/injection, schedule: Q04DX003 (ip), vehicle: saline sonified): 110 % of control

— PubChem BioAssay AID328 (DTP/NCI, 2004)
